Measurements reported in patent US11492335B2, “Aryl or heteroaryl triazolone derivatives or salts thereof, or pharmaceutical compositions comprising the same” (YUHAN CORPORATION, priority 2018, dated 2022).
Structures can show the parent of a compound that is named as a salt. Where two headings read alike, the source gives them in different places.

How the values were obtained:
Format in all cases: biochemical
[1] = biological target: T1, recombinant human VAP-1 (Homo sapiens, UniProt Q16853); assay: Activity on recombinant human VAP-1, Amplex Red HRP-coupled hydrogen peroxide assay, benzylamine substrate; settings: recombinant human VAP-1, benzylamine substrate, 30 min preincubation at 37° C.; read-out: Inhibitory Activity (IC50, nM) human VAP-1
T1 construct: purchased R&D systems
T1 sequence (Q16853 1-763): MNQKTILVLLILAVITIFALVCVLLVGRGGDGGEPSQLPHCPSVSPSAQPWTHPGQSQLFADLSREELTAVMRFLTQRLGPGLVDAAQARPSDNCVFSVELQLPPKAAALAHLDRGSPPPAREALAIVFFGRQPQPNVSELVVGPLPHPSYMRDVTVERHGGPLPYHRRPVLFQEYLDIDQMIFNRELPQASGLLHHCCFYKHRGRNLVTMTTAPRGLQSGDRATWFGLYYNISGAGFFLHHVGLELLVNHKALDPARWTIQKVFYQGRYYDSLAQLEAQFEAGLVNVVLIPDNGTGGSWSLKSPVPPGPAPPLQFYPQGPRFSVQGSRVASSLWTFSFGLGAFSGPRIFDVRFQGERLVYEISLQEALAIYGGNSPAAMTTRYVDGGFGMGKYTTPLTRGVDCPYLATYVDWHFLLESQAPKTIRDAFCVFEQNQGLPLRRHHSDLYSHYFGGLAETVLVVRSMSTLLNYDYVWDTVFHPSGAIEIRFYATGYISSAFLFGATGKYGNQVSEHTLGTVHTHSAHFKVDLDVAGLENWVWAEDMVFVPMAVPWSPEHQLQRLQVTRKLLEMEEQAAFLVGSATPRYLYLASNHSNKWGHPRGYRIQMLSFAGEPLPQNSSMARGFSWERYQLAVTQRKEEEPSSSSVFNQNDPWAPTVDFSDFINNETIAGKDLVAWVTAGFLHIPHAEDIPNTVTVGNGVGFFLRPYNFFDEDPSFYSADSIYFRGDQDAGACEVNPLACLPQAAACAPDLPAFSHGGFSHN
Summary of the method: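 Dose-response IC50 determined from reduction in resorufin signal rate (544/590 nm, 1-2 h), with 30 min compound preincubation at 37 °C and 1 mM benzylamine as substrate.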

[2] = biological target: T2, recombinant human MAO-A (monoamine oxidase-A) (Homo sapiens, UniProt P21397); assay: Activity on recombinant human MAO-A, Amplex Red method, 0.5 mM tyramine substrate; settings: 0.5 mM tyramine, read-out: Inhibitory Activity (IC50, nM) MAO-A
T2 construct: purchased Sigma-Aldrich
T2 sequence (P21397 1-527): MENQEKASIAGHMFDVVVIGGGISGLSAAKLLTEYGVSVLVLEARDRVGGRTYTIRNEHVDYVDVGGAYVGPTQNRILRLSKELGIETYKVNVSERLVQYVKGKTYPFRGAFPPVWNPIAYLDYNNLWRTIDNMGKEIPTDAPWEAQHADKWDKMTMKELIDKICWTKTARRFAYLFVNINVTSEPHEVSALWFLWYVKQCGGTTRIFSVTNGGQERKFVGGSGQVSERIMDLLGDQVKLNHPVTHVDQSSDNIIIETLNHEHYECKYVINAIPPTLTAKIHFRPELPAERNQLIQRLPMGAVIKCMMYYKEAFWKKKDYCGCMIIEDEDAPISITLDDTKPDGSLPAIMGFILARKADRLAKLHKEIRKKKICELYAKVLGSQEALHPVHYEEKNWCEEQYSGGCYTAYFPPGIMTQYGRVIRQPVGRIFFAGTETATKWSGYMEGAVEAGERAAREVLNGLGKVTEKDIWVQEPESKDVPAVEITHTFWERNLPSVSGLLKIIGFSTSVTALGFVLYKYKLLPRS
Summary of the method: (§1)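 Amplex Red/HRP coupled read-out of H2O2 with 0.5 mM tyramine for MAO-A or 1 mM benzylamine for MAO-B, following a 30-min compound–enzyme preincubation at 37° C. IC50 from percent inhibition of signal rate relative to uninhibited control.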

[3] = biological target: T3, recombinant human MAO-B (monoamine oxidase-B) (Homo sapiens, UniProt P27338); assay: Activity on recombinant human MAO-B, Amplex Red method, 1 mM benzylamine substrate; settings: 1 mM benzylamine, read-out: Inhibitory Activity (IC50, nM) MAO-B
T3 construct: purchased Sigma-Aldrich
T3 sequence (P27338 1-520): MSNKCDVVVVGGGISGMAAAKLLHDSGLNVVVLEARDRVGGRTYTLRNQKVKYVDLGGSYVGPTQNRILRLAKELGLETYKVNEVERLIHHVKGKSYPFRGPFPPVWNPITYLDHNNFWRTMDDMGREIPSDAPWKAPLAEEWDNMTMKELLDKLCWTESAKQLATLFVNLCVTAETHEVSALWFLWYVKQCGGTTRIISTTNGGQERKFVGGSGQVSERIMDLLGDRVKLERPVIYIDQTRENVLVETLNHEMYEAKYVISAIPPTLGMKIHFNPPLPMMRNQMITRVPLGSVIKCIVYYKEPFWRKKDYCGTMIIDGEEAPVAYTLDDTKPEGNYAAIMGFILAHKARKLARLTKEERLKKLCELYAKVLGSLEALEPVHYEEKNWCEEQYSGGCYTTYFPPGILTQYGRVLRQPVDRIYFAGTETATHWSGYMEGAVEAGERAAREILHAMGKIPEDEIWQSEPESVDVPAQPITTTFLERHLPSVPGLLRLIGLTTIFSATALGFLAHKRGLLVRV
Summary of the method: as §1

[4] = biological target: T4, recombinant human DAO (diamine oxidase) (Homo sapiens, UniProt P19801); assay: Activity on recombinant human DAO, Amplex Red method, 1 mM putrescine substrate
T4 construct: purchased R&D systems
T4 sequence (P19801 20-751): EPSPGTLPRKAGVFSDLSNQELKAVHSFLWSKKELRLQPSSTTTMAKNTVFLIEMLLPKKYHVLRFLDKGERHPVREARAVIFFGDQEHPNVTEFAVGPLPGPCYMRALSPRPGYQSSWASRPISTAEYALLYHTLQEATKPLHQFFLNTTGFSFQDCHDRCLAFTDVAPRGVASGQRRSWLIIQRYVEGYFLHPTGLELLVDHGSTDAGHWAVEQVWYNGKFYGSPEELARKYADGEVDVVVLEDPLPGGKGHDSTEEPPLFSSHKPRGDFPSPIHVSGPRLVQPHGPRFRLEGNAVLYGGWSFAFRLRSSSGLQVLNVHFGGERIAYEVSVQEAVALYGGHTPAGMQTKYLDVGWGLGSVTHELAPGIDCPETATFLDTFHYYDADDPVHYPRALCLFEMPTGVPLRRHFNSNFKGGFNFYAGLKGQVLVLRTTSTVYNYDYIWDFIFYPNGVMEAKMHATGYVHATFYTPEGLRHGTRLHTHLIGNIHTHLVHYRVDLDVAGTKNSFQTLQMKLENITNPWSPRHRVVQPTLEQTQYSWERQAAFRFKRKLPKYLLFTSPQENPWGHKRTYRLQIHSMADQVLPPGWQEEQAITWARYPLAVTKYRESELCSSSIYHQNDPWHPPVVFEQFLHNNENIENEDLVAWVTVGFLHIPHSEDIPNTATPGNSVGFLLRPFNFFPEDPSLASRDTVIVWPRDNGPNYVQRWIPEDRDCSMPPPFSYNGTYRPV
Summary of the method: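 Inhibition of recombinant human DAO (diamine oxidase, R&D systems) was assessed with the Amplex Red Hydrogen Peroxide Assay Kit. Hydrogen peroxide produced from 1 mM putrescine was detected through an HRP-coupled reaction that converts Amplex Red into fluorescent resorufin, read at 544 nm excitation and 590 nm emission. IC50 values came from four-parameter logistic fits in GraphPad Prism.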

[5] = recombinant human DAO, 1 mM putrescine, * = between 10 and 100 nM, ** = between 300 and 1000 nM, read-out: Inhibitory Activity (IC50, nM) DAO

IC50 [1]	IC50 [2]	IC50 [3]	IC50 [4, 5]	Compound	IC50 [4]
1.7 nM	5700 nM	2100 nM	30 nM	NC/C(=C/F)Cn1ncn(-c2nccs2)c1=O [Example 39, 2-[(2Z)-2-(aminomethyl)-3-fluoroprop-2-en-1-yl]-4-(1,3-thiazol-2-yl)-2,4-dihydro-3H-1,2,4-triazol-3-one hydrochloride]	–
1.1 nM	80 nM	619 nM	25 nM	NC/C(=C/F)Cn1ncn(-c2ncc(Br)s2)c1=O [Example 40, 2-[(2Z)-2-(aminomethyl)-3-fluoroprop-2-en-1-yl]-4-(5-bromo-1,3-thiazol-2-yl)-2,4-dihydro-3H-1,2,4-triazol-3-one hydrochloride]	–
0.6 nM	780 nM	174 nM	17 nM	NC/C(=C\F)Cn1ncn(-c2ncc(Br)s2)c1=O [Example 41, 2-[(2E)-2-(aminomethyl)-3-fluoroprop-2-en-1-yl]-4-(5-bromo-1,3-thiazol-2-yl)-2,4-dihydro-3H-1,2,4-triazol-3-one hydrochloride]	–
0.62 nM	> 100000 nM	196 nM	< 100 nM	NC/C(=C\F)Cn1ncn(-c2ccc(-c3ccc(-c4nnc[nH]4)cc3)cc2F)c1=O [Example 43, 2-[(2E)-2-(aminomethyl)-3-fluoroprop-2-en-1-yl]-4-[3-fluoro-4′-(4H-1,2,4-triazol-3-yl)biphenyl-4-yl]-2,4-dihydro-3H-1,2,4-triazol-3-one]	–
1.3 nM	68300 nM	65 nM	< 100 nM	NC/C(=C\F)Cn1ncn(-c2ccc(-c3cccc(-c4nnc[nH]4)c3)cc2F)c1=O [Example 44, 2-[(2E)-2-(aminomethyl)-3-fluoroprop-2-en-1-yl]-4-[3-fluoro-3′-(4H-1,2,4-triazol-3-yl)biphenyl-4-yl]-2,4-dihydro-3H-1,2,4-triazol-3-one]	–
0.32 nM	120 nM	< 10 nM	0.76 nM	NC/C(=C\F)Cn1ncn(-c2ccc(-c3ccc4nonc4c3)cc2F)c1=O [Example 46, 2-[(2E)-2-(aminomethyl)-3-fluoroprop-2-en-1-yl]-4-[4-(2,1,3-benzooxadiazol-5-yl)-2-fluorophenyl]-2,4-dihydro-3H-1,2,4-triazol-3-one hydrochloride]	–

Second part, the molecule before the results:

Compound	IC50 [1]	IC50 [2]	IC50 [3]	IC50 [4, 5]	IC50 [4]
NC/C(=C\F)Cn1ncn(-c2cccc(Br)n2)c1=O [Example 37, 2-[(2E)-2-(aminomethyl)-3-fluoroprop-2-en-1-yl]-4-(6-bromopyridin-2-yl)-2,4-dihydro-3H-1,2,4-triazol-3-one]	1.8 nM	> 100000 nM	> 10000 nM	16 nM	–
NC/C(=C\F)Cn1ncn(-c2cnc(Br)cn2)c1=O [Example 38, 2-[(2E)-2-(aminomethyl)-3-fluoroprop-2-en-1-yl]-4-(5-bromopyrazin-2-yl)-2,4-dihydro-3H-1,2,4-triazol-3-one]	4.4 nM	19600 nM	112 nM	< 100 nM	–
CC(=O)c1ccc(-c2ccc(-n3cnn(C/C(=C\F)CN)c3=O)cc2)s1 [Example 42, 4-[4-(5-acetylthiophen-2-yl)phenyl]-2-[(2Z)-2-(aminomethyl)-3-fluoroprop-2-en-1-yl]-2,4-dihydro-3H-1,2,4-triazol-3-one hydrochloride]	0.47 nM	18400 nM	< 0.01 nM	1 nM	–
NC/C(=C\F)Cn1ncn(-c2ccc(-c3ccc4c(c3)OCO4)cc2F)c1=O [Example 45, 2-[(2E)-2-(aminomethyl)-3-fluoroprop-2-en-1-yl]-4-[4-(1,3-benzodioxol-5-yl)-2-fluorophenyl]-2,4-dihydro-3H-1,2,4-triazol-3-one hydrochloride]	0.21 nM	198 nM	< 10 nM	1.6 nM	–
NC/C(=C\F)Cn1ncn(-c2cccc(C3=CCNCC3)c2)c1=O [Example 48, 2-[(2E)-2-(aminomethyl)-3-fluoroprop-2-en-1-yl]-4-[3-(1,2,3,6-tetrahydropyridin-4-yl)phenyl]-2,4-dihydro-3H-1,2,4-triazol-3-one dihydrochloride]	0.56 nM	> 100000 nM	> 10000 nM	–	0.79 nM
CC(=O)c1ccc(-c2cccc(-n3cnn(C/C(=C/F)CN)c3=O)c2)s1 [Example 49, 4-[3-(5-acetylthiophen-2-yl)phenyl]-2-[(2E)-2-(aminomethyl)-3-fluoroprop-2-en-1-yl]-2,4-dihydro-3H-1,2,4-triazol-3-one hydrochloride]	0.2 nM	> 100000 nM	800 nM	2.1 nM	–
NC/C(=C\F)Cn1ncn(-c2cccc(-c3ccc(OC(F)(F)F)cc3)c2)c1=O [Example 50, 2-[(2E)-2-(aminomethyl)-3-fluoroprop-2-en-1-yl]-4-[4′-(trifluoromethoxy)biphenyl-3-yl]-2,4-dihydro-3H-1,2,4-triazol-3-one hydrochloride]	1 nM	> 10000 nM	510 nM	< 100 nM	–
